Source: publication PMC9668969 (Nature Communications, 2022)

Target: T1, W206F ELIC (Dickeya chrysanthemi, UniProt P0C7B7, W205F)
T1 construct: host or cells: OverExpress C43 (DE3) E. coli
Test: Tryptophan fluorescence emission spectrum with and without agonist
Assay type: biochemical, Erwinia chrysanthemi
Details: W206F 30 mM Cys
Procedure: To measure the tryptophan (Trp) fluorescence emission of ELIC, WT or W206F ELIC was diluted to 3 ml (0.02 mg/ml) and an emission spectrum was collected in a quartz fluorescence cell using a Fluoromax Plus Spectrofluorometer (Horiba Scientific). […] Trp fluorescence measurements with rapid mixing of agonist was carried out using the SX20 stopped-flow spectrofluorometer, outfitted with a 295 nm LED excitation source. Purified ELIC was diluted to 0.1 mg/ml in Trp Stopped-flow Buffer A (10 mM Tris pH 7.5, 100 mM NaCl, 0.05% DDM). A single mixing experiment was performed by mixing ELIC with equal volumes of Buffer A + propylamine. Propylamine was prepared at varying concentrations at 2x the final concentration. The instrument dead time was ~1 ms, enabling capture of most of the time course of change in Trp fluorescence. The time course of decrease in Trp fluorescence after rapid mixing with propylamine was fit to a single exponential to obtain a time constant for the rate of decrease and a measure of the extent of decrease. All replicates were taken from distinct samples.

T1 sequence (P0C7B7 whole entry W205F): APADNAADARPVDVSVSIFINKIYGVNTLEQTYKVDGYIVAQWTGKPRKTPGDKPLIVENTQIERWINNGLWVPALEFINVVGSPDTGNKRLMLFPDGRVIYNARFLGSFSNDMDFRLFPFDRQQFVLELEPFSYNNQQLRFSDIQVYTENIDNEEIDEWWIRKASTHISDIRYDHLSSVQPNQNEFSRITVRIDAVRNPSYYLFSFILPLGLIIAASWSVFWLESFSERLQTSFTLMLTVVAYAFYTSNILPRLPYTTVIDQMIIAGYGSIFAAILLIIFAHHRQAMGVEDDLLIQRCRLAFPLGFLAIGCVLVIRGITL

**Q.** With `NCCS` [cysteamine] as the compound, how does the “Tryptophan fluorescence emission intensity” value (wavelength 320) read?
**A.** 771490

**Q.** What about the “Tryptophan fluorescence emission intensity” value (wavelength 321) of the same compound?
**A.** 795430

**Q.** And the “Tryptophan fluorescence emission intensity” value (wavelength 322)?
**A.** 813680

**Q.** What about the “Tryptophan fluorescence emission intensity” value (wavelength 323) of the same compound?
**A.** 843300

**Q.** And the “Tryptophan fluorescence emission intensity” value (wavelength 324)?
**A.** 855410

**Q.** And the “Tryptophan fluorescence emission intensity” value (wavelength 325)?
**A.** 890410

**Q.** And the “Tryptophan fluorescence emission intensity” value (wavelength 327)?
**A.** 921570

**Q.** What about the “Tryptophan fluorescence emission intensity” value (wavelength 328) of the same compound?
**A.** 945690

**Q.** What about the “Tryptophan fluorescence emission intensity” value (wavelength 329) of the same compound?
**A.** 972730

**Q.** And the “Tryptophan fluorescence emission intensity” value (wavelength 330)?
**A.** 989960

**Q.** And the “Tryptophan fluorescence emission intensity” value (wavelength 331)?
**A.** 1002600

**Q.** And the “Tryptophan fluorescence emission intensity” value (wavelength 332)?
**A.** 1020470

**Q.** And the “Tryptophan fluorescence emission intensity” value (wavelength 333)?
**A.** 1032760

**Q.** What about the “Tryptophan fluorescence emission intensity” value (wavelength 334) of the same compound?
**A.** 1043250

**Q.** And the “Tryptophan fluorescence emission intensity” value (wavelength 335)?
**A.** 1051410

**Q.** What about the “Tryptophan fluorescence emission intensity” value (wavelength 336) of the same compound?
**A.** 1059950

**Q.** What about the “Tryptophan fluorescence emission intensity” value (wavelength 337) of the same compound?
**A.** 1062210

**Q.** And the “Tryptophan fluorescence emission intensity” value (wavelength 338)?
**A.** 1071660

**Q.** What about the “Tryptophan fluorescence emission intensity” value (wavelength 339) of the same compound?
**A.** 1076280

**Q.** What about the “Tryptophan fluorescence emission intensity” value (wavelength 340) of the same compound?
**A.** 1083710

**Q.** And the “Tryptophan fluorescence emission intensity” value (wavelength 341)?
**A.** 1085920

**Q.** And the “Tryptophan fluorescence emission intensity” value (wavelength 342)?
**A.** 1080500

**Q.** And the “Tryptophan fluorescence emission intensity” value (wavelength 343)?
**A.** 1081010

**Q.** And the “Tryptophan fluorescence emission intensity” value (wavelength 344)?
**A.** 1074670

**Q.** And the “Tryptophan fluorescence emission intensity” value (wavelength 345)?
**A.** 1071140

**Q.** What about the “Tryptophan fluorescence emission intensity” value (wavelength 346) of the same compound?
**A.** 1066530

**Q.** What about the “Tryptophan fluorescence emission intensity” value (wavelength 347) of the same compound?
**A.** 1060720

**Q.** What about the “Tryptophan fluorescence emission intensity” value (wavelength 348) of the same compound?
**A.** 1058590

**Q.** And the “Tryptophan fluorescence emission intensity” value (wavelength 349)?
**A.** 1045760

**Q.** What about the “Tryptophan fluorescence emission intensity” value (wavelength 350) of the same compound?
**A.** 1042330

**Q.** What about the “Tryptophan fluorescence emission intensity” value (wavelength 351) of the same compound?
**A.** 1034700

**Q.** What about the “Tryptophan fluorescence emission intensity” value (wavelength 352) of the same compound?
**A.** 1019030

**Q.** What about the “Tryptophan fluorescence emission intensity” value (wavelength 353) of the same compound?
**A.** 1010620

**Q.** What about the “Tryptophan fluorescence emission intensity” value (wavelength 354) of the same compound?
**A.** 993340

**Q.** What about the “Tryptophan fluorescence emission intensity” value (wavelength 355) of the same compound?
**A.** 980850

**Q.** What about the “Tryptophan fluorescence emission intensity” value (wavelength 356) of the same compound?
**A.** 973320

**Q.** And the “Tryptophan fluorescence emission intensity” value (wavelength 357)?
**A.** 961650

**Q.** What about the “Tryptophan fluorescence emission intensity” value (wavelength 358) of the same compound?
**A.** 938960

**Q.** And the “Tryptophan fluorescence emission intensity” value (wavelength 359)?
**A.** 924340

**Q.** What about the “Tryptophan fluorescence emission intensity” value (wavelength 360) of the same compound?
**A.** 898600

**Q.** What about the “Tryptophan fluorescence emission intensity” value (wavelength 361) of the same compound?
**A.** 886010

**Q.** And the “Tryptophan fluorescence emission intensity” value (wavelength 362)?
**A.** 867380

**Q.** And the “Tryptophan fluorescence emission intensity” value (wavelength 363)?
**A.** 844340

**Q.** What about the “Tryptophan fluorescence emission intensity” value (wavelength 364) of the same compound?
**A.** 830030

**Q.** What about the “Tryptophan fluorescence emission intensity” value (wavelength 365) of the same compound?
**A.** 813040

**Q.** And the “Tryptophan fluorescence emission intensity” value (wavelength 366)?
**A.** 786750

**Q.** And the “Tryptophan fluorescence emission intensity” value (wavelength 367)?
**A.** 769070

**Q.** What about the “Tryptophan fluorescence emission intensity” value (wavelength 368) of the same compound?
**A.** 749540

**Q.** And the “Tryptophan fluorescence emission intensity” value (wavelength 369)?
**A.** 729430

**Q.** What about the “Tryptophan fluorescence emission intensity” value (wavelength 370) of the same compound?
**A.** 711180

**Q.** What about the “Tryptophan fluorescence emission intensity” value (wavelength 371) of the same compound?
**A.** 692310

**Q.** What about the “Tryptophan fluorescence emission intensity” value (wavelength 372) of the same compound?
**A.** 672500

**Q.** What about the “Tryptophan fluorescence emission intensity” value (wavelength 373) of the same compound?
**A.** 652280

**Q.** What about the “Tryptophan fluorescence emission intensity” value (wavelength 374) of the same compound?
**A.** 629710

**Q.** And the “Tryptophan fluorescence emission intensity” value (wavelength 375)?
**A.** 618580

**Q.** What about the “Tryptophan fluorescence emission intensity” value (wavelength 376) of the same compound?
**A.** 599350

**Q.** What about the “Tryptophan fluorescence emission intensity” value (wavelength 377) of the same compound?
**A.** 580660

**Q.** What about the “Tryptophan fluorescence emission intensity” value (wavelength 378) of the same compound?
**A.** 563670

**Q.** And the “Tryptophan fluorescence emission intensity” value (wavelength 379)?
**A.** 543190

**Q.** What about the “Tryptophan fluorescence emission intensity” value (wavelength 380) of the same compound?
**A.** 522740

**Q.** What about the “Tryptophan fluorescence emission intensity” value (wavelength 381) of the same compound?
**A.** 502820

**Q.** And the “Tryptophan fluorescence emission intensity” value (wavelength 382)?
**A.** 487000

**Q.** And the “Tryptophan fluorescence emission intensity” value (wavelength 383)?
**A.** 475140

**Q.** What about the “Tryptophan fluorescence emission intensity” value (wavelength 384) of the same compound?
**A.** 456600

**Q.** What about the “Tryptophan fluorescence emission intensity” value (wavelength 385) of the same compound?
**A.** 440790

**Q.** What about the “Tryptophan fluorescence emission intensity” value (wavelength 386) of the same compound?
**A.** 423940

**Q.** And the “Tryptophan fluorescence emission intensity” value (wavelength 387)?
**A.** 405220

**Q.** What about the “Tryptophan fluorescence emission intensity” value (wavelength 388) of the same compound?
**A.** 397190

**Q.** What about the “Tryptophan fluorescence emission intensity” value (wavelength 389) of the same compound?
**A.** 381080

**Q.** What about the “Tryptophan fluorescence emission intensity” value (wavelength 390) of the same compound?
**A.** 363380

**Q.** And the “Tryptophan fluorescence emission intensity” value (wavelength 391)?
**A.** 352540

**Q.** And the “Tryptophan fluorescence emission intensity” value (wavelength 392)?
**A.** 336000

**Q.** What about the “Tryptophan fluorescence emission intensity” value (wavelength 393) of the same compound?
**A.** 325360

**Q.** And the “Tryptophan fluorescence emission intensity” value (wavelength 394)?
**A.** 311620

**Q.** And the “Tryptophan fluorescence emission intensity” value (wavelength 395)?
**A.** 300840

**Q.** And the “Tryptophan fluorescence emission intensity” value (wavelength 396)?
**A.** 285190

**Q.** And the “Tryptophan fluorescence emission intensity” value (wavelength 397)?
**A.** 272180

**Q.** And the “Tryptophan fluorescence emission intensity” value (wavelength 398)?
**A.** 260830

**Q.** And the “Tryptophan fluorescence emission intensity” value (wavelength 399)?
**A.** 250140

**Q.** What about the “Tryptophan fluorescence emission intensity” value (wavelength 400) of the same compound?
**A.** 241040

**Q.** What about the “Tryptophan fluorescence emission intensity” value (wavelength 401) of the same compound?
**A.** 226290

**Q.** What about the “Tryptophan fluorescence emission intensity” value (wavelength 402) of the same compound?
**A.** 221660

**Q.** What about the “Tryptophan fluorescence emission intensity” value (wavelength 403) of the same compound?
**A.** 211970

**Q.** What about the “Tryptophan fluorescence emission intensity” value (wavelength 404) of the same compound?
**A.** 203540

**Q.** What about the “Tryptophan fluorescence emission intensity” value (wavelength 405) of the same compound?
**A.** 194410

**Q.** What about the “Tryptophan fluorescence emission intensity” value (wavelength 406) of the same compound?
**A.** 184680

**Q.** And the “Tryptophan fluorescence emission intensity” value (wavelength 407)?
**A.** 177100

**Q.** And the “Tryptophan fluorescence emission intensity” value (wavelength 408)?
**A.** 169410

**Q.** And the “Tryptophan fluorescence emission intensity” value (wavelength 409)?
**A.** 164650

**Q.** What about the “Tryptophan fluorescence emission intensity” value (wavelength 410) of the same compound?
**A.** 155310

**Q.** And the “Tryptophan fluorescence emission intensity” value (wavelength 411)?
**A.** 149680

**Q.** And the “Tryptophan fluorescence emission intensity” value (wavelength 412)?
**A.** 144200

**Q.** What about the “Tryptophan fluorescence emission intensity” value (wavelength 413) of the same compound?
**A.** 137560

**Q.** And the “Tryptophan fluorescence emission intensity” value (wavelength 414)?
**A.** 131490

**Q.** And the “Tryptophan fluorescence emission intensity” value (wavelength 415)?
**A.** 127250

**Q.** What about the “Tryptophan fluorescence emission intensity” value (wavelength 416) of the same compound?
**A.** 120610

**Q.** And the “Tryptophan fluorescence emission intensity” value (wavelength 417)?
**A.** 116040

**Q.** And the “Tryptophan fluorescence emission intensity” value (wavelength 418)?
**A.** 113630

**Q.** And the “Tryptophan fluorescence emission intensity” value (wavelength 419)?
**A.** 109000

**Q.** What about the “Tryptophan fluorescence emission intensity” value (wavelength 420) of the same compound?
**A.** 104760
